Assay results from patent US8986667B2, “Cosmetic composition with skin tightening effect” (LVMH Recherche, priority 2001, dated 2015).

Test system: human skin
Assay: Kinetics of penetration of caffeine through thawed human skin mounted on Franz cells
Assay type: in vitro ADME
Conditions: receptor liquid
Description: This study is made, in vitro, on human skin, which is kept beforehand by freezing, with the aim of evaluating the influence of the mixture according to the invention on the penetration and the distribution of caffeine within the skin beds. The occlusive properties of a gel according to the invention lead the research of an eventual patch effect. This study is made in comparison with a Carbopol gel.
The principle of the study is based on the evaluation of the diffusion of an active principle through the thawed human skin which is mounted on Franz cells.
These cells are constituted of two glass elements which delimit an upper partition and a lower partition, and they have an exposed surface area of […]. The skin is placed between these two elements, stratum corneum to the top. The active principle deposited on the skin crosses it and is collected in the lower partition, dissolved in a solution which is known as the receptor solution and which is constituted of a phosphate buffer+Na nitride (0.1%) mixture. […]
The kinetics of penetration, in μg/cm^2 per unit time, is expressed as a function of the interval of confidence, the IC95%, wherein the residual standard deviation is calculated by the ANOVA method over the whole of the tests. […]

**Q.** How did the “maximum concentration of caffeine collected during the study” value turn out when Cn1c(=O)c2c(ncn2C)n(C)c1=O [caffeine] was run?
**A.** less than 23 μg/mL
